Inhibition and viability data for ten molecules are collected here from patent US11299485B2, “Thiophene derivative and use thereof” (FUJIMOTO CO., LTD., priority 2018, dated 2022).

Format in all cases: cell-based
In one assay the test system is TNF-α production. Briefly: Human TNF-α production suppression test (LPS-stimulated peripheral blood mononuclear cells, ELISA). To be noted: PBMC, compound 10 μg/mL, 24 hr, control well = 100, read-out: TNF-α production suppressive rate (%). Put shortly: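 PBMCs from healthy adult blood (Lymphoprep) were seeded at 5×10^5 cells/mL in RPMI1640 with 10% FCS, with test compound and LPS, for 24 hr at 37° C, 5% CO2. Supernatant TNF-α was measured by ELISA; suppression rate calculated against DMSO control wells set as 100.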
A general note: An ELISA detects its analyte on a solid surface through an enzyme-linked reagent.

A further assay has as its system MM.1S cells. Briefly: Human myeloma cell line MM.1S proliferation suppression test. To be noted: MM1.S, 72 h, compound 10 μM, 3 days, WST-1 or WST-8, read-out: cell survival rate (% of control) MM.1S. Put shortly: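 Cells at 2×10^5 cells/mL in RPMI1640 + 10% FCS, mixed 1:1 with compound diluted from DMSO stock (final 10 μM) versus DMSO-only control. Cultured 3 days at 37 °C, 5% CO2; proliferation read with WST-1 or WST-8.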

A further assay has as its system Pfeiffer cells. The assay is described as follows: Human diffuse large B-cell lymphoma cell line Pfeiffer proliferation suppression test. To be noted: 144 h, compound 10 μM, 3 days + re-plating with compound 3 days, WST-8, read-out: cell survival rate (% of control) Pfeiffer. The essentials: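 Pfeiffer cells were seeded at 1.3×10^5 cells/mL and dosed the next day with compound at 10 μM final (DMSO control), then grown 3 days at 37 °C, 5% CO2. An aliquot was then passaged into a fresh plate with compound re-added at 10 μM final for 3 more days. Proliferation was read by WST-8.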

A further assay relates to REC-1 cells. The assay is described as follows: Human mantle cell lymphoma cell line REC-1 proliferation suppression test. To be noted: Rec1, 72 h, compound 10 μM, 3 days, WST-8, read-out: cell survival rate (% of control) REC-1. The essentials:
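Cells were plated at 1.3×10^5 cells/mL, and the next day test compound was added at a final 10 μM, with DMSO-only medium as control. After 3 days at 37° C under 5% CO2, proliferation was measured with WST-8.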
(In general: Formazan colour is commonly taken as a measure of viable cells.)

As to `COc1c(-c2cn(C3CCC(=O)NC3=O)nn2)csc1Cl` (stereo not shown) [compound 22, 3-[4-(5-chloro-4-methoxythiophen-3-yl)-1H-1,2,3-triazol-1-yl]piperidine-2,6-dione], in the assay on TNF-α production, the inhibition at 10 µg/mL was determined as 48%. Also, the viability at 10 µM was 73% in the assay with MM.1S cells, 97% with Pfeiffer cells and 65% with REC-1 cells.
In the case of `COc1sccc1-c1cn(C2CCC(=O)NC2=O)nn1` (stereo not shown) [compound 18, 3-[4-(2-methoxythiophen-3-yl)-1H-1,2,3-triazol-1-yl]piperidine-2,6-dione], in the assay on TNF-α production, the inhibition at 10 µg/mL was determined as 100%. Moreover, the figures for the viability at 10 µM in the assay with MM.1S cells, in the assay on Pfeiffer cells and in the assay with REC-1 cells were 27%, 70% and 18%, respectively.
In the same order, the values of `O=C1CCC(n2cc(-c3csc(CO)c3)nn2)C(=O)N1` (stereo not shown) [compound 9, 3-{4-[5-(hydroxymethyl)thiophen-3-yl]-1H-1,2,3-triazol-1-yl}piperidine-2,6-dione] are 41%, 77%, 100% and 70%.
Turning to `CC(=O)c1ccc(-c2cn(C3CCC(=O)NC3=O)nn2)s1` (stereo not shown) [compound 8, 3-[4-(5-acetylthiophen-2-yl)-1H-1,2,3-triazol-1-yl]piperidine-2,6-dione], the inhibition at 10 µg/mL in the assay on TNF-α production came to 64%. Further, the values for the viability at 10 µM with MM.1S cells, in the assay on Pfeiffer cells and in the assay on REC-1 cells were 94%, 107% and 99%, respectively.
Regarding `O=C1CCC(n2cc(-c3cscc3OCC3CCCC3)nn2)C(=O)N1` (stereo not shown) [compound 29, 3-{4-[4-(cyclopentylmethoxy)thiophen-3-yl]-1H-1,2,3-triazol-1-yl}piperidine-2,6-dione], the inhibition at 10 µg/mL with TNF-α production was found to be 57%. In addition, the viability at 10 µM in the assay with MM.1S cells turned out to be 89%; with Pfeiffer cells it was 110%; with REC-1 cells, 86%.
The matching figures for `O=C1CCC(n2cc(-c3cc(Br)sc3Br)nn2)C(=O)N1` (stereo not shown) [compound 13, 3-[4-(2,5-dibromothiophen-3-yl)-1H-1,2,3-triazol-1-yl]piperidine-2,6-dione]: 35%, 79%, 100% and 100%.
With `O=C1CCC(n2cc(-c3cscc3Br)nn2)C(=O)N1` (stereo not shown) [compound 1, 3-[4-(4-bromothiophen-3-yl)-1H-1,2,3-triazol-1-yl]piperidine-2,6-dione], the inhibition at 10 µg/mL in the assay on TNF-α production was 90%. The viability at 10 µM in the assay with MM.1S cells was 33%; with Pfeiffer cells it was 89%; with REC-1 cells, 43%.
In the same order, the values of `O=C1CCC(n2cc(-c3cscc3OCc3cccc(CN4CCOCC4)c3)nn2)C(=O)N1` (stereo not shown) [compound 39, 3-(4-{4-[3-(morpholinomethyl)benzyloxy]thiophen-3-yl}-1H-1,2,3-triazol-1-yl)piperidine-2,6-dione] are 81%, 26%, 69% and 24%.
In the same order, the values of `COc1cscc1-c1nnn(C2CCC(=O)NC2=O)c1I` (stereo not shown) [compound 49, 3-[5-iodo-4-(4-methoxythiophen-3-yl)-1H-1,2,3-triazol-1-yl]piperidine-2,6-dione] are 79%, 48%, 75% and 24%.
In the case of `O=C1CCC(n2cc(-c3ccsc3)nn2)C(=O)N1` (stereo not shown) [compound 2, 3-[4-(thiophen-3-yl)-1H-1,2,3-triazol-1-yl]piperidine-2,6-dione], the inhibition at 10 µg/mL in the assay with TNF-α production stood at 98%. In addition, the viability at 10 µM in the assay with MM.1S cells stood at 50%; in the assay with Pfeiffer cells, 80%; in the assay with REC-1 cells it was 36%.
